Laboratory results as given in PubChem BioAssay (NCI).
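In this assay, cells in 96-well plates receive the compound at five concentrations for 48 hours. Endpoints are linearly interpolated between the surrounding concentrations. GI50 marks 50% less growth. The concentration for full growth arrest is given as TGI.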

Tests used:
Test in all cases: NCI tumour cell line growth inhibition, 48 h
[1] = system: HCT-116 colon
[2] = system: HCT-15 colon
[3] = system: HS 578T breast
[4] = system: MALME-3M melanoma
[5] = system: OVCAR-3 ovarian
[6] = system: RPMI-8226 leukemia
[7] = system: RXF 393 renal
[8] = system: SF-295 CNS
[9] = system: LOX IMVI melanoma
[10] = system: SW-620 colon

Compound | TGI [1] [µM] | TGI [2] [µM] | TGI [3] [µM] | TGI [4] [µM] | TGI [5] [µM] | TGI [6] [µM] | TGI [7] [µM] | TGI [8] [µM] | TGI [9] [µM] | TGI [10] [µM] | GI50 [2] [µM] | GI50 [3] [µM] | GI50 [9] [µM] | GI50 [4] [µM] | GI50 [5] [µM] | GI50 [6] [µM] | GI50 [7] [µM] | GI50 [10] [µM]
COc1ccc(/C=C(\C#N)c2nc(N)nc(N3N=C(C)CC3(C)C)n2)c(O)c1 | 31.4 | 35.3 | 40 | 31.7 | 28.3 | 98.7 | 33.4 | 43 | – | – | – | – | – | – | – | – | – | –
CN(CCCNC(=O)c1cn(C)c2c1ccc1cc(Cl)c(Cl)cc12)CCCNC(=O)c1cn(C)c2c1ccc1cc(Cl)c(Cl)cc12 | 31.2 | 27.5 | 27.6 | 31.8 | > 54.9 | – | 16.7 | 38.3 | > 43.3 | 19.1 | – | – | – | – | – | – | – | –
Cc1cc(O)c(C(C)C)cc1CN1CCCCC1 | > 100 | > 100 | > 100 | > 100 | > 100 | > 100 | > 100 | > 100 | > 100 | > 100 | – | – | – | – | – | – | – | –
OCCOCn1cc(Cn2ncc3c(SCc4ccccc4)ncnc32)nn1 | > 100 | > 100 | > 100 | > 100 | > 100 | – | > 100 | > 100 | > 100 | > 100 | – | – | – | – | – | – | – | –
NCCNc1nc(N2CCCC2)c2nc(Cl)c(NCc3ccccc3)nc2n1 | 2.93 | 3.84 | 12.8 | 3.73 | 4.16 | 3.84 | 2.91 | 3.5 | 3.06 | 4.73 | – | – | – | – | – | – | – | –
CC(Sc1ccccc1)C(CO)(CO)[N+](=O)[O-] (configuration not stated) | 31.6 | 30.6 | – | 38.7 | 29.4 | 49.2 | 31.3 | 28.9 | 28.2 | 28.4 | – | – | – | – | – | – | – | –
COC(=O)C1C(C)N1C (configuration not stated) | – | > 100 | – | – | > 100 | > 100 | > 100 | – | > 100 | > 100 | – | – | – | – | – | – | – | –
O=[n+]1c2c(n([O-])c3ccccc31)-c1cccc3cccc-2c13 | > 100 | > 100 | > 100 | – | > 100 | – | > 100 | > 100 | > 100 | > 100 | – | – | – | – | – | – | – | –
NNC(=O)c1ccccc1Nc1ccccc1C(=O)NN | > 100 | > 100 | > 100 | > 100 | > 100 | > 100 | > 100 | > 100 | > 100 | > 100 | – | – | – | – | – | – | – | –
Nc1nc(N)c2c(n1)NC(c1ccccc1)CC(/C=C/c1ccc(Cl)cc1)=N2 (configuration not stated) | 4.76 | 23.3 | 9.94 | 32.7 | 23.4 | 12.7 | 16.7 | 36.2 | 13.4 | 26.8 | – | – | – | – | – | – | – | –
O=S(=O)(O)c1cccc2c(N=Nc3c(O)ccc4ccccc34)cccc12 | > 100 | > 100 | > 100 | > 100 | > 100 | > 100 | > 100 | > 100 | > 100 | > 100 | – | – | – | – | – | – | – | –
N[C@H]1CCN(c2c(F)cc3c(=O)c(C(=O)O)cn4c3c2Oc2cc3c(ccc5ccccc53)cc2-4)C1 | > 100 | > 100 | – | > 100 | > 100 | 4 | > 100 | > 100 | > 100 | > 100 | – | – | – | – | – | – | – | –
CC(=O)N(C)c1ccc2c(ccc[n+]2[O-])c1[N+](=O)[O-] | > 100 | > 100 | – | > 100 | > 100 | > 100 | > 100 | > 100 | > 100 | > 100 | – | – | – | – | – | – | – | –
O=C1c2cc3c(cc2-c2c1c1ccc(Cl)cc1c(=O)n2C[C@H](O)[C@@H](O)[C@H](O)CO)OCO3 | – | 1.66 | > 100 | 0.505 | 0.452 | 0.989 | 0.258 | – | 0.103 | 0.325 | 0.143 | 0.328 | 0.0145 | 0.0737 | 0.0758 | 0.24 | 0.0536 | 0.0163
CC(=O)OC1CC(O)CC2=CCC3C4CCC(C(C)(O)C(O)CC5COC(=O)C5C)C4(C)CCC3C21C (configuration not stated) | > 25 | > 25 | > 25 | – | > 25 | > 25 | > 25 | > 25 | > 25 | > 25 | – | – | – | – | – | – | – | –
CN(C)CCn1c(=O)c2ccc3c4c(nn3CCN(C)C)c3cc(N)ccc3n(c1=O)c24 | 0.0716 | 0.222 | 1.03 | 0.257 | 0.164 | 60.7 | 0.173 | 0.584 | 0.127 | 1.87 | – | – | – | – | – | – | – | –
CCC(C)C1NC(=O)C2CCCN2C(=O)C(CC2CO2)OC(=O)CCNC(=O)C(C)N(C)C(=O)C(C(C)C)N(C)C1=O (configuration not stated) | – | > 100 | > 100 | 0.0641 | > 100 | – | > 100 | – | 0.118 | > 100 | – | – | – | – | – | – | – | –
CC1(C)CCC2(C(=O)OC3OC(CO)C(O)C(O)C3O)CCC3(C)C(=CCC4C5(C)CCC(OC6OC(CO)C(O)C(O)C6O)C(C)(C)C5CCC43C)C2C1 (configuration not stated) | > 25 | > 25 | > 25 | > 25 | > 25 | 10.7 | > 25 | > 25 | 8.51 | > 25 | – | – | – | – | – | – | – | –
Nc1ccc2c(c1)C(=O)N(O)C2=O | > 100 | > 100 | – | > 100 | > 100 | – | > 100 | > 100 | > 100 | > 100 | – | – | – | – | – | – | – | –
